Test results published in paper PMC6128854 (Scientific Reports, 2018).
Positions of bridges follow the written chain, without caps; N, C: chain ends. Non-standard residues stand in square brackets, D forms with d. Residues, ends and D or L forms follow the SMILES beside them. Hyp = O=C(O)[C@@H]1C[C@@H](O)CN1

Columns and labels:
endogenous human Cav1.3 = endogenous human Cav1.3 (Homo sapiens, UniProt Q01668)
[1] = biological target: N-type calcium channel currents (Cav2.2) in rDRG neurons (Rattus norvegicus, UniProt Q02294); test: cell-based; conditions: SEM
endogenous human Cav3.1 = endogenous human Cav3.1 (Homo sapiens, UniProt O43497)
side effects in rats = conditions: rat, in vivo

Chain of endogenous human Cav3.1 (O43497 whole entry): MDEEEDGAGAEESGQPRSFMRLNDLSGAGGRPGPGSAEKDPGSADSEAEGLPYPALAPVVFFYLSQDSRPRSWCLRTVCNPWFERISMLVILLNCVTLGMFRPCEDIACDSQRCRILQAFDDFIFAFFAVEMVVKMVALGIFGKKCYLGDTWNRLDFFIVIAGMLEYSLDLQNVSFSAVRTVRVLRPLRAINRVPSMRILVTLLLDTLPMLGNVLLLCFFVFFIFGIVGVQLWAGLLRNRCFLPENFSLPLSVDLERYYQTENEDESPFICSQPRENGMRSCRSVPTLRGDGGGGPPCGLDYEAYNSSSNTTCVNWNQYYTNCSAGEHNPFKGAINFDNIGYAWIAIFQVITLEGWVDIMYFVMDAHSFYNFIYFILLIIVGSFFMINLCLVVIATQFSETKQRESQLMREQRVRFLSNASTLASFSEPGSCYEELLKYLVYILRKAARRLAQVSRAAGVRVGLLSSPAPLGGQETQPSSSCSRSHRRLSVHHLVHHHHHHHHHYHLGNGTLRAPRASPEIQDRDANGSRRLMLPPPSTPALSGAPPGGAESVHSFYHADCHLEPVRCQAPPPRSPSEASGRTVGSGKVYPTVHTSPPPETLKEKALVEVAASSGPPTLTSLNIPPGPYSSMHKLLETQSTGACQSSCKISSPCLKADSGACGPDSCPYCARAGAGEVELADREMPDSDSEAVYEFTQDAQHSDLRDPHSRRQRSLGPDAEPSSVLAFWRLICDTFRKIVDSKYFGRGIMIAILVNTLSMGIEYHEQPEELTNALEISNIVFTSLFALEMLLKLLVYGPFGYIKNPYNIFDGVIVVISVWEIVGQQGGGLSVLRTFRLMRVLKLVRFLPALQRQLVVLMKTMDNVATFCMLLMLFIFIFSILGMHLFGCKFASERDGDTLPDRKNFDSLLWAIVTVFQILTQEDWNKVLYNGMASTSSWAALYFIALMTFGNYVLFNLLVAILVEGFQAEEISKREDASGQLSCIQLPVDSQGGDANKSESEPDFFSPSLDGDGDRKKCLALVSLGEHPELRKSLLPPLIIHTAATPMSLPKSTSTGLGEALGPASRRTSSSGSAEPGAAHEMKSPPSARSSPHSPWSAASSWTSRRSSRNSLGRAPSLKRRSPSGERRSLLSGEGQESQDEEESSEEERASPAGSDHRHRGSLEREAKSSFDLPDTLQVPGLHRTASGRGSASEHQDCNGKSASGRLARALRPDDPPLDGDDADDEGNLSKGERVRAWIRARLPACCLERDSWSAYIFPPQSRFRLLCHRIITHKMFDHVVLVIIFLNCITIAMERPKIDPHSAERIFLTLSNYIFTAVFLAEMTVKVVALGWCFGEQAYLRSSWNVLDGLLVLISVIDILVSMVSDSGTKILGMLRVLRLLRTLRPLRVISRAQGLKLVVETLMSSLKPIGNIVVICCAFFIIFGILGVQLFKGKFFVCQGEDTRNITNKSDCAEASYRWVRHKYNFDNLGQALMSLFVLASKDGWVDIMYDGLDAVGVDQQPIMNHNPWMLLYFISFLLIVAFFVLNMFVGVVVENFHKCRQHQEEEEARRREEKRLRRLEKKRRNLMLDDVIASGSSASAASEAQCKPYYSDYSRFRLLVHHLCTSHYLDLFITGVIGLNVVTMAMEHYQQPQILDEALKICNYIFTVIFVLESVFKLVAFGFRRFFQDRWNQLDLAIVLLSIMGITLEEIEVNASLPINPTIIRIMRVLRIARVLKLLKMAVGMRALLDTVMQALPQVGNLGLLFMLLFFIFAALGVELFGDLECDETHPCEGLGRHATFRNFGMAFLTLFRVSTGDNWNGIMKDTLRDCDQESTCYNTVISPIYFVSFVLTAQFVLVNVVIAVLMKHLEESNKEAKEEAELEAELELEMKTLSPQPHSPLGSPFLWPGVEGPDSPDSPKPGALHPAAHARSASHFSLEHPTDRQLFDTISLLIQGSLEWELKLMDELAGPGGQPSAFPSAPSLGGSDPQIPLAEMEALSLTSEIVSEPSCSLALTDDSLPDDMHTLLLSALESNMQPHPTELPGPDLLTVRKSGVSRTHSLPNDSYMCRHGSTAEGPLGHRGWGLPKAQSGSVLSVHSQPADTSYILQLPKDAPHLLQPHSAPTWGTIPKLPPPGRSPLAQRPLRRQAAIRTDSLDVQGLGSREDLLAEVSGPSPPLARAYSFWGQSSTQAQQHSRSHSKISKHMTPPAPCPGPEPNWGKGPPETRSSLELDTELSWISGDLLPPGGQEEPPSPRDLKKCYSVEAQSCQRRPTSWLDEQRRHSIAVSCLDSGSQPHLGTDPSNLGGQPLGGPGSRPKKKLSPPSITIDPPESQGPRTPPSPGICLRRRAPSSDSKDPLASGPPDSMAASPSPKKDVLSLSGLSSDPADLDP
Chain of N-type calcium channel currents (Cav2.2) in rDRG neurons (Q02294 whole entry, looked up): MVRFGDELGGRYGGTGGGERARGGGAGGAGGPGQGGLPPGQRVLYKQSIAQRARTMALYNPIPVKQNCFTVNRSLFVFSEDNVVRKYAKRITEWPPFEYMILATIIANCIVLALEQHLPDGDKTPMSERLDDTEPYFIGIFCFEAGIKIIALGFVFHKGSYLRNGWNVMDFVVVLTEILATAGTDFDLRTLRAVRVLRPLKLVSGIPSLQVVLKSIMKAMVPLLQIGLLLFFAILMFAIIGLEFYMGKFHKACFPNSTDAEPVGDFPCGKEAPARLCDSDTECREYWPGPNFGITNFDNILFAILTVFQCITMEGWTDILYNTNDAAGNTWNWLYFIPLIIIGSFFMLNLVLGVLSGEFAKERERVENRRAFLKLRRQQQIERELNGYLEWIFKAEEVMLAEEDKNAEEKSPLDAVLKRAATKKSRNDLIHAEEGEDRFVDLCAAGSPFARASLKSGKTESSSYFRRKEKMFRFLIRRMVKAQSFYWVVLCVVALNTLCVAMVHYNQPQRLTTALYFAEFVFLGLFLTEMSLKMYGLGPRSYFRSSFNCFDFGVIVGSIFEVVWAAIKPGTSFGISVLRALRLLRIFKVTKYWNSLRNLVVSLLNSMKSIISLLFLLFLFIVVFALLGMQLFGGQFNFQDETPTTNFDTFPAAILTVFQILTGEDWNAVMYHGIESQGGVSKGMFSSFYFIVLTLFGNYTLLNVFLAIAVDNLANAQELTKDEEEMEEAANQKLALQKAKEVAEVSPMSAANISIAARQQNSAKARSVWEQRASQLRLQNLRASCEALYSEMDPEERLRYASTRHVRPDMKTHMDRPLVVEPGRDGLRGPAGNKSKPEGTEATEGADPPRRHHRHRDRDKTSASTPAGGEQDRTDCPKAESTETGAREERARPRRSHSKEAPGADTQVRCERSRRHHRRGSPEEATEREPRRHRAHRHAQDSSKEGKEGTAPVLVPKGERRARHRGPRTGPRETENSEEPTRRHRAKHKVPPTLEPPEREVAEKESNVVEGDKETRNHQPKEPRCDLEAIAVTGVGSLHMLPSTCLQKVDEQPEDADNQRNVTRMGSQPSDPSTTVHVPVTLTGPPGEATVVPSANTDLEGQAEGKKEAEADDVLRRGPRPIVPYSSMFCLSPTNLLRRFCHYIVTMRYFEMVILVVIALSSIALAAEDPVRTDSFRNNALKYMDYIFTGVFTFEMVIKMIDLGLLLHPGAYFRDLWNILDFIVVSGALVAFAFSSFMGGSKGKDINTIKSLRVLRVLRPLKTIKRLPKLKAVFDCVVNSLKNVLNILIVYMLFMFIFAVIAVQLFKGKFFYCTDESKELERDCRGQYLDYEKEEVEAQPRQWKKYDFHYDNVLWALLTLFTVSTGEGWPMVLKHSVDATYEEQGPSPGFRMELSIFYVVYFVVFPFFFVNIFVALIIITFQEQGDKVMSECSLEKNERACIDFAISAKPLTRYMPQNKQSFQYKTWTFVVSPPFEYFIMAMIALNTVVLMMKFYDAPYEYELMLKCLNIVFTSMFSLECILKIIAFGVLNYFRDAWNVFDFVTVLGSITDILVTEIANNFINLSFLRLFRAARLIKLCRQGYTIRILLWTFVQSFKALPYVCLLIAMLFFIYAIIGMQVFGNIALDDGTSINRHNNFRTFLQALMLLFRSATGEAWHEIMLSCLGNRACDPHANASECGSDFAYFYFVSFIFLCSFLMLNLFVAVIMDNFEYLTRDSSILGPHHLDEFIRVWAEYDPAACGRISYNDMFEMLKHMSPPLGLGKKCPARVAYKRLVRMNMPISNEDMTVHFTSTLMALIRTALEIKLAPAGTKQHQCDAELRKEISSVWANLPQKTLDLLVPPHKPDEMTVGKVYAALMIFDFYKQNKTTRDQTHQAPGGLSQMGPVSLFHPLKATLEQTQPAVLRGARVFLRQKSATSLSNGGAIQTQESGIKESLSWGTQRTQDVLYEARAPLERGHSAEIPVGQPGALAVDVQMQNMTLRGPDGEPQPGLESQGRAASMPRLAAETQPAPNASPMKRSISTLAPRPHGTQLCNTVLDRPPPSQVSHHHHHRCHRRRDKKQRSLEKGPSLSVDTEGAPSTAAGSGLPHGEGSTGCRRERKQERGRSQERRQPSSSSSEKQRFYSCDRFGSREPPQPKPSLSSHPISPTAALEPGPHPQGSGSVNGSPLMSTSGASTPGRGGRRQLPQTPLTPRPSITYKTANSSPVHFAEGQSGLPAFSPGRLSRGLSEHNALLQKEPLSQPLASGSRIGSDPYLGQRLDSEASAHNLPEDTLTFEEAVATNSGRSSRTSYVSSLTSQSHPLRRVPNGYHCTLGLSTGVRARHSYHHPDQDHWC

CC[C@H](C)[C@@H]1NC(=O)[C@@H]2CSSC[C@@H]3NC(=O)[C@H](CCCCN)NC(=O)[C@H](CO)NC(=O)CNC(=O)[C@@H]4C[C@@H](O)CN4C(=O)[C@@H]4CCCN4C(=O)[C@H](CCCCN)NC(=O)[C@@H](N)CSSC[C@H](NC(=O)[C@H](CSSC[C@@H](C(=O)N[C@@H](CCCNC(=N)N)C(=O)N[C@@H](CCCCN)C(=O)N[C@@H](Cc4ccc(O)cc4)C(=O)N[C@@H](Cc4ccc(O)cc4)C(=O)N[C@@H](CC(N)=O)C(=O)O)NC(=O)[C@H](CCCNC(=N)N)NC(=O)[C@H](CCCCN)NC(=O)[C@H]([C@@H](C)O)NC(=O)[C@H](Cc4ccc(O)cc4)NC(=O)[C@H](CO)NC1=O)NC(=O)[C@H](CC(=O)O)NC(=O)[C@H](CCCNC(=N)N)NC(=O)[C@H](CCSC)NC(=O)[C@H](CO)NC(=O)[C@@H]1C[C@@H](O)CN1C(=O)[C@H](CO)NC3=O)C(=O)N[C@@H]([C@@H](C)O)C(=O)N[C@@H]([C@@H](C)O)C(=O)N2 [MoVIA] (H-CKP[Hyp]GSKCS[Hyp]SMRDCCTTCISYTKRCRKYYN-OH; disulfide 1-16, 8-19, 15-26)
activity at endogenous human Cav1.3 (endogenous human Cav1.3): inactive | IC50 [1]: 80 ± 10 nM | activity at endogenous human Cav3.1 (endogenous human Cav3.1): inactive

CC[C@H](C)[C@@H]1NC(=O)[C@@H]2CSSC[C@@H]3NC(=O)[C@H](CCCCN)NC(=O)[C@H](CO)NC(=O)CNC(=O)[C@@H]4C[C@@H](O)CN4C(=O)[C@@H]4CCCN4C(=O)[C@H](CCCCN)NC(=O)[C@@H](N)CSSC[C@H](NC(=O)[C@H](CSSC[C@@H](C(=O)N[C@@H](CCCNC(=N)N)C(=O)N[C@@H](CCCCN)C(=O)N[C@@H](Cc4ccc(O)cc4)C(=O)N[C@@H](Cc4ccc(O)cc4)C(=O)O)NC(=O)[C@H](CCCNC(=N)N)NC(=O)[C@H](CCCCN)NC(=O)[C@H]([C@@H](C)O)NC(=O)[C@H](Cc4ccc(O)cc4)NC(=O)[C@H](CO)NC1=O)NC(=O)[C@H](CC(=O)O)NC(=O)[C@H](CCCNC(=N)N)NC(=O)[C@H](CCSC)NC(=O)[C@H](CO)NC(=O)[C@@H]1C[C@@H](O)CN1C(=O)[C@H](CO)NC3=O)C(=O)N[C@@H]([C@@H](C)O)C(=O)N[C@@H]([C@@H](C)O)C(=O)N2 [MoVIB] (H-CKP[Hyp]GSKCS[Hyp]SMRDCCTTCISYTKRCRKYY-OH; disulfide 1-16, 8-19, 15-26)
duration of side effects (side effects in rats): up to 4 h | therapeutic index (ratio of ED50 visual side effect score to ED50 mechanical PWT) (side effects in rats): 2.2 | ED50 for visual side effect score (side effects in rats; SEM): 0.09 ± 0.05 nmol | activity at endogenous human Cav1.3 (endogenous human Cav1.3): inactive | IC50 [1]: 180 ± 30 nM | activity at endogenous human Cav3.1 (endogenous human Cav3.1): inactive
